Where two headings read alike, the source gives them in different places.

Data set [1] in a line: Pharmacokinetic analysis of plasma in SD rats. The note with it: female, Sprague-Dawley, rat; for half-life: 14 mg/kg. The data set is classed as in vivo. As for the experimental part: In the pharmacokinetic analysis, a total of 23 female SD rats aged 8 weeks from Zhejiang Academy of Medical Sciences (Hangzhou, China) (permit number: ZJU20240191) were used. A total of 15 rats were randomly divided into the following groups: (i) control group, (ii) TBG096 (14 mg/kg) oral administration group, and (iii) TBG096 (14 mg/kg) intravenous administration group. TBG096 was administered orally (dissolved in soybean oil) or intravenously (dissolved in Milli-Q water containing 2% Tween 80 and 5% ethanol) at 14 mg/kg after 12 h of fasting. Then, the blood from the posterior ocular venous plexus of rats was taken at 5, 15, 30, 60, 90, 120, 180, and 240 min after administration. A total of eight rats were randomly divided into two groups for taking brain samples: (i) control group and (ii) TBG096 (14 mg/kg) oral administration group.
The collected blood was placed in a centrifuge tube (containing 20 µL heparin sodium solution) and centrifuged at 3000 rpm for 10 min to obtain a supernatant (plasma). Brain samples were collected after the oral administration of 14 mg/kg TBG096 and heart perfusion with PBS. Then, 10 µL of 10% formic acid and 10 µL of internal standard (10 ng/µL) were added to 200 µL of plasma (compound 2 was used as internal standard) or 0.2 g of brain sample (compound 4 was used as internal standard) and vortexed for 10 s and then left at −80 °C overnight. Next, 600 µL or 3 mL of extraction solvent (isopropanol) was added to plasma or brain samples, vortexed for 5 min, left at −30 °C for 2 h, and then centrifuged at 12,000 rpm for 15 min. Next, the upper organic phase was transferred to another tube, centrifuged, and concentrated to dryness. The residue was dissolved in 100 µL of mobile phase, vortexed for 0.5 min, and centrifuged at 12,000 rpm for 3 min, and the supernatant was then prepared for HPLC analysis (Supersil Phenyl 5 µm (4.6 × 200 mm), elution with MeCN/H2O containing 0.1% formic acid (plasma samples: 57% MeCN/H2O, brain samples: 56% MeCN/H2O) for 30 min, flow rate: 1 mL/min, sample size: 20 µL, detected at 284 nm) and HR ESI-TOF-MS analysis.

In data set [2] the test system is HFD-induced AD mice. Put plainly: Immunofluorescence staining of brain tissue of HFD-induced AD mice. Format: in vivo. From the text: In experiments with the HFD-induced AD mouse model, a total of 60 Institute of Cancer Research (ICR) male mice aged 4 weeks from Zhejiang Academy of Medical Sciences (Hangzhou, China) were used for animal experiments (permit number: ZJU20230121). The animals were provided free access to a chow diet and water. […] The HFD and normal diet were alternated every two days to maintain freshness. Weekly measurements were taken for water intake, food intake, and body weight. In the eighteenth week, the mice underwent Y-maze and NOR tests. The Morris water maze test was conducted during the nineteenth week. After confirming the successful establishment of the AD model characterized by cognitive impairment, oral administration of treatments commenced. […] Each group had 10 mice.
At the end of animal experiments, three mice in each group were taken for heart perfusion with cold PBS and 4% paraformaldehyde. After that, the brains of mice were fixed with 4% paraformaldehyde for 24 h and gradually dehydrated with 15% and 30% sucrose solutions for 48 h, respectively. The fixed and embedded brain sample was placed in a cryostat and cut into 20 µm thick slices with a cryostat (Thermo Fisher, Waltham, MA, USA), and brain slices in the hippocampus and cortex were collected. Finally, the brain slices were placed in antifreeze (glycerol/ethylene/PBS = 3:3:4) and kept in a refrigerator at −30 °C until immunostaining. The brain slices were fixed on a glass slide and hydrated with PBS for 5 min. Then, blocking buffer was added to the brain slices and incubated at room temperature for 1 h. Brain slices were washed twice with PBS and incubated with anti-NeuN, anti-BrdU, anti-Iba1, anti-GFAP, anti-INOS, anti-APP, or anti-p-Tau at 4 °C for 24 h, respectively. Subsequently, the brain slices were incubated with secondary antibody (goat anti-rabbit IgG H&L (Alexa Fluor® 488) or rabbit anti-mouse IgG (Cy3 conjugate)) at room temperature for 2 h after washing with PBS three times. Finally, a cover glass was used to lightly cover the slices stained with DAPI. […] Biomarker proteins in the cerebral cortex and hippocampus were digitized by Image J software (National Institutes of Health, Bethesda, MD, USA).

With `O=C(SCCCCCCSCCCC(F)(F)F)c1cccc(O)c1O` [TBG096], the bioavailability in data set [1] (14 mg/kg oral vs i.v., rats, read-out: absolute (oral) bioavailability) came out at 36%. Also, the half-life is 44.4 min in data set [1] (iv, i.v. 14 mg/kg, rats, read-out: T1/2z); 111 min in data set [1] (po, oral (i.g.) 14 mg/kg, rats, read-out: T1/2z (oral elimination half-life)); 111 min in data set [1] (po, oral, as restated in Discussion, read-out: half-life (converted)). The AUC(0-inf) was 2520 ng·h/mL in data set [1] (iv, i.v. 14 mg/kg, rats) and 905 ng·h/mL in data set [1] (oral (i.g.) 14 mg/kg, rats). Moreover, the AUC(0-t) in data set [1] (iv, i.v. 14 mg/kg, rats) was 2470 ng·h/mL; in data set [1] (oral (i.g.) 14 mg/kg, rats), 707 ng·h/mL. Besides, the Cmax came out at 4700 ng/mL in data set [1] (iv, i.v. 14 mg/kg, rats) and 700 ng/mL in data set [1] (oral (i.g.) 14 mg/kg, rats). Besides, the Tmax in data set [1] (iv, i.v. 14 mg/kg, rats) is 5 min; in data set [1] (oral (i.g.) 14 mg/kg, rats), 15 min. In data set [2] (immunofluorescence), the “APP and phosphorylation Tau protein in the hippocampus” value is recorded as “reduction”. Further, the “Iba1, GFAP, INOS markers (activated microglia, astrocytes, M1 macrophages) in the hippocampus” value in data set [2] (vs HFD-only) is “significantly reduced”. Moreover, the “number of mature neurons (NeuN) in the cerebral cortex” value in data set [2] (vs HFD-only group) is “increased numbers of mature neurons”.

Usually bioavailability stands for the share of a dose that reaches the circulation, judged against a reference dose that is usually intravenous. One may read the AUC(0-inf) as total exposure, with the tail of the curve extrapolated. Read a high AUC(0-inf) as high exposure. By AUC(0-t) is commonly meant the area under the concentration-time curve up to a stated or last time point. The low end stands for less exposure, the high end for more exposure. As a reminder, the Cmax is the maximum level reached in the sampled fluid or tissue. By Tmax is commonly meant the time from dosing to the highest level.

Source of the values: publication PMC11943016, “TBG096 Ameliorates Memory Deficiency in AD Mouse Model via Promoting Neurogenesis and Regulation of Hsc70/HK2/PKM2/LAMP2A Signaling Pathway” (International Journal of Molecular Sciences, 2025).
